How the values were obtained:
[1] = system: forelimb function lost after freezing damage-induced brain injury; assay: Recovery by training of forelimb function lost after freezing damage-induced brain injury; format: in vivo, C57BL/6J mice; details: mice, oral twice a day 30 mg/kg/time plus training 30 min/day, evaluated 21-49 days after damage, compared to the other groups (control, Compound A without training, training only), FIG. 1
Experimental: Action of enhancing the recovery effect obtained by training the forelimb function lost after freezing damage-induced brain injury was examined. A test was performed using the following method, by referring to the method described in Journal of Neuroscience Methods, Vol. 193, Issue 1, Pages 82-85 (2010) and Nature, Vol. 462, Issue 7275, Pages 915-919 (2009). Six-week-old male C57BL/6J mice (Charles River Japan) were used in the test. The mice were raised in an environment in which they had free access to feed and water, under a light-dark cycle of 12 hours (light period: 7:00-19:00, dark period: 19:00-7:00). The mice were randomly assigned to the groups. [table] An acrylic rectangular enclosure (length×width×height; 15×8.5×20 cm) in which only the front face of the four faces was transparent, and the other three faces were black was used. A slit measuring 0.5 cm in width×13 cm in height was formed on the right side of the front face when seen from the front. A transparent acrylic plate measuring 8.5 cm in width×1.25 cm in height was used as the feed plate. Diced almonds (K's Factory, Co., Ltd.) were used as the feed for use in the evaluation. […] A case where a mouse was able to extend the left forelimb through the slit, and carry the diced almond into the mouth without dropping it was determined to be successful. […]

[2] = system: upper limb function lost after brain injury; assay: Recovery by rehabilitation-like training of upper limb function lost after brain injury (internal capsule hemorrhage cynomolgus monkey models); format: in vivo, cynomolgus monkeys; details: 1 animal
Excerpt: Test Example 3 Action of enhancing the recovery effect obtained with rehabilitation-like training of the upper limb function lost after brain injury was examined, using internal capsule hemorrhage cynomolgus monkey models.
Two male cynomolgus monkeys (Tsukuba Primate Research Center, National Institute of Biomedical Innovation) were used in the test. The cynomolgus monkeys were raised in a breeding cage for old world monkeys (length×width×height; 79×47×80 cm) in which they had free access to feed and water, under a light-dark cycle of 12 hours (light period: 7:00-19:00 dark period: 19:00-7:00).
Motor learning and an upper limb function evaluation were performed by making the cynomolgus monkeys take feed provided in front of the breeding cage. A 3.5- or 7 mm square piece of apple was used as the feed for use in the evaluation.
In order to allow the cynomolgus monkeys to acclimate to the testing apparatus, and determine the dominant hand of each of the individuals, a 7 mm square piece of apple attached to a needle tip was provided in the center of the front face of the cage, and the behavior of the cynomolgus monkey taking the feed was observed. The hand more often used in a total of 150 trials (30 trials a day for 5 days) was determined as its dominant hand. […]

[3] = system: forelimb function lost after internal capsule hemorrhage-induced brain injury; assay: Recovery by training of forelimb function lost after internal capsule hemorrhage-induced brain injury (mouse models); format: in vivo, C57BL/6J mice; details: mice, oral once a day 20 mg/kg/time plus training 30 min/day, evaluated 31-63 days after induction, compared to trained control group, FIG. 2
Experimental: Action of enhancing the recovery effect obtained by training the forelimb function lost after internal capsule hemorrhage-induced brain injury was examined, using internal capsule hemorrhage mouse models. A test was carried out using the following method, by referring to Plos One, Vol. 8, e67691 (2013) and Behav Brain Res., Vol. 20, Issue 225, Pages 126-34 (2011). Six-week-old male C57BL/6J mice (Charles River Japan) were used in the test. The mice were raised in an environment in which they had free access to feed and water, under a light-dark cycle of 12 hours (light period: 7:00-19:00, dark period: 19:00-7:00). The mice were randomly assigned to the groups. [table] An acrylic rectangular enclosure (length×width×height; 15×8.5×20 cm) in which only the front face of the four faces was transparent, and the other three faces were black was used. A slit measuring 0.5 cm in width×13 cm in height was formed on the right side of the front face when seen from the front. A transparent acrylic plate measuring 8.5 cm in width×1.25 cm in height was used as the feed plate. Diced almonds (K's Factory, Co., Ltd.) were used as the feed for use in the evaluation. […] A case where a mouse was able to extend the left forelimb through the slit, and carry the diced almond into the mouth without dropping it was determined to be successful. […]

SMILES: OC1CN(CCCOCCc2ccc3sccc3c2)C1 [Compound A, 1-(3-(2-(1-benzothiophen-5-yl)ethoxy)propyl)azetidin-3-ol]
- relative recovery rate (success rate of taking feed with left forelimb) [1]: much higher relative recovery rate within a short period
- recovery after the brain injury (upper limb function) ([2]; intramuscular once a day 3 mg/kg/time plus rehabilitation-like training, versus trained animal without Compound A (recovery limited)): remarkable tendency to recovery was observed
- accurate grasping ([2]; intramuscular once a day 3 mg/kg/time, after the beginning of the rehabilitation-like training, not observed in animal without Compound A): accurate grasping similar to that before the brain injury was observed
- relative recovery rate (success rate of taking feed with left forelimb) [3]: much higher relative recovery rate
